Experimental data published in patent publication US20260085053A1, “BENZOFURAN DERIVATIVES AS SIK INHIBITORS AND THE USE THEREOF” (BEONE MEDICINES I GMBH, priority 2023, published 2026).

How the values were obtained:
[1] = molecular target: T1, SIK1 kinase (aa1-303, Thermo Fisher) (Homo sapiens, UniProt P57059); assay: Biochemical activities determination for SIK1 protein (TR-FRET); conditions: 110 uM ATP, 0.5 μM STK1 substrate
T1 construct: SIK1 kinase (aa1-303, Thermo Fisher); purchased Thermo Fisher
Summary of the method: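 TR-FRET kinase assay with SIK1 (aa1-303), 110 uM ATP, 0.5 μM STK1 substrate and 0-10 μM compound in Tris pH 7.5 with MgCl2, EGTA, DTT, Triton X-100. Enzyme preincubated with compound 60 min, reaction 180 min at room temperature; 665/620 nm ratio after overnight detection; IC50 from four-parameter logistic fit.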

[2] = molecular target: T2, SIK3 kinase (aa59-365, Thermo Fisher) (Homo sapiens, UniProt Q9Y2K2); assay: Biochemical activities determination for SIK3 protein (TR-FRET); conditions: 125 uM ATP, 0.5 μM STK1 substrate
T2 construct: SIK3 kinase (aa59-365, Thermo Fisher); purchased Thermo Fisher
Summary of the method: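 SIK3 (aa59-365) was preincubated with compound (0-10 μM) for 60 min at room temperature in Tris buffer pH 7.5. The reaction was then started with 125 uM ATP and 0.5 μM STK1 substrate and run 180 min at room temperature. Phospho-substrate was detected by HTRF (665/620 nm ratio), and IC50 came from a four-parameter logistic fit.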

[3] = molecular target: T3, SIK2 kinase (full length, Thermo Fisher) (Homo sapiens, UniProt Q9H0K1); assay: Biochemical activities determination for SIK2 protein (TR-FRET); conditions: 80 uM ATP, 0.5 μM substrate
T3 construct: SIK2 kinase (full length, Thermo Fisher); purchased Thermo Fisher
Summary of the method: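 Full-length SIK2 preincubated 60 min with 0–10 μM compound, then reacted 180 min at room temperature with 80 uM ATP and 0.5 μM biotinylated substrate (pH 7.5 Tris/MgCl2 buffer). Phosphorylation detected by TR-FRET (665/620 nm ratio, cryptate antibody/streptavidin-XL665) after overnight incubation; IC50 from four-parameter logistic fit.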

T1 sequence (P57059 1-303): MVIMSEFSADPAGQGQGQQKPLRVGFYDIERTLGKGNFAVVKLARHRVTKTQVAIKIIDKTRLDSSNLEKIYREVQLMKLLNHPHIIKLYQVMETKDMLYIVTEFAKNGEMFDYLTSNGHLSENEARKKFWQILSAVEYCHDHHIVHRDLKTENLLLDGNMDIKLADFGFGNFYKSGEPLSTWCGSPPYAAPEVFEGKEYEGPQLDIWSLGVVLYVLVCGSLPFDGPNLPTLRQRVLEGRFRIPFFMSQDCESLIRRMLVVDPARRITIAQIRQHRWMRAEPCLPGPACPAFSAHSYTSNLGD
T2 sequence (Q9Y2K2 59-365): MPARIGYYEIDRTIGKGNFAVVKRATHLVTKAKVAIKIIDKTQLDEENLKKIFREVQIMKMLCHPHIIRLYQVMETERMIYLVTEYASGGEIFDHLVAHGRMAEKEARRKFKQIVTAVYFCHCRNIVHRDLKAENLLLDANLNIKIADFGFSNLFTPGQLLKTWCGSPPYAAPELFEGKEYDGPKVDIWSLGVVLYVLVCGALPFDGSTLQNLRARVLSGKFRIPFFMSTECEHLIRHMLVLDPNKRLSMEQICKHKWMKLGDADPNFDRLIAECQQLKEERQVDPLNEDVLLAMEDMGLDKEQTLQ
T3 sequence (Q9H0K1 whole entry): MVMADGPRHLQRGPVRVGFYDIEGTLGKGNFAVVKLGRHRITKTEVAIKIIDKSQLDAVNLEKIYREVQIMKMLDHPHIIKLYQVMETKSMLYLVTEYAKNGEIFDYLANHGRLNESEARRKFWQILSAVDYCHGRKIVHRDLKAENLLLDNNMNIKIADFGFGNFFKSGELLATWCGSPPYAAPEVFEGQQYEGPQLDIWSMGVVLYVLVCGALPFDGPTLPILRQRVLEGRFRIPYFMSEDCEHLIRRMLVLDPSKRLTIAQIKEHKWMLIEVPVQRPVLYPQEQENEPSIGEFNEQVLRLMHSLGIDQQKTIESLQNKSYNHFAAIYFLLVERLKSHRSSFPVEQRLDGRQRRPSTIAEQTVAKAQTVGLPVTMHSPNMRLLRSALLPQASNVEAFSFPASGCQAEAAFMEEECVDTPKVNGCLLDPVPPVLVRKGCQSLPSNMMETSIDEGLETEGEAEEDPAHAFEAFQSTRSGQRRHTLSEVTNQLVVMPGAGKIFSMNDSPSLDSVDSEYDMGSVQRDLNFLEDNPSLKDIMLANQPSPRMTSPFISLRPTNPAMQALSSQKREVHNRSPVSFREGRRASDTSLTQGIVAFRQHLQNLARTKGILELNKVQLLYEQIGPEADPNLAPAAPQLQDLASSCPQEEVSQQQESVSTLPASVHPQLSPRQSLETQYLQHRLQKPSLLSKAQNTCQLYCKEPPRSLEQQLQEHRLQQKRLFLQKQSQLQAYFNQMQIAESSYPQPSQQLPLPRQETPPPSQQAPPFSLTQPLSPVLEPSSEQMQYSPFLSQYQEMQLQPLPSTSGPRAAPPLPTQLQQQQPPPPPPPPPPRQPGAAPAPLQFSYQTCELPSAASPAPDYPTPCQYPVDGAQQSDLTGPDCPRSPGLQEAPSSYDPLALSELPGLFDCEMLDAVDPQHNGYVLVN

Row | IC50 [1] [nM] | IC50 [2] [nM] | IC50 [3] [nM] | Structure (SMILES)
1 | 1380 | 39 | 48 | COc1cc(-c2coc3cc(OCCN4CC[C@@H](F)C4)ccc23)cc(OC(F)F)c1C(=O)N[C@@H]1C[C@@H]1F [Compound 71, 2-(difluoromethoxy)-N-((1R,2S)-2-fluorocyclopropyl)-4-(6-(2-((R)-3-fluoropyrrolidin-1-yl)ethoxy)benzofuran-3-yl)-6-methoxybenzamide]
2 | 2040 | 43 | 22 | CC[C@H]1CCN(CCOc2ccc3c(-c4cc(OC)c(C(=O)N[C@@H]5C[C@@H]5F)c(OC(F)F)c4)coc3c2)C1 [Compound 96, 2-(difluoromethoxy)-4-(6-(2-((S)-3-ethylpyrrolidin-1-yl)ethoxy)benzofuran-3-yl)-N-((1R,2S)-2-fluorocyclopropyl)-6-methoxybenzamide]
3 | > 10000 | 2900 | 619 | COc1cc(-c2coc3cc(OCCN4CCCC4)ccc23)cc(OC(F)F)c1C(=O)NC1CCCCC1 [Compound 127, N-cyclohexyl-2-(difluoromethoxy)-6-methoxy-4-(6-(2-(pyrrolidin-1-yl)ethoxy)benzofuran-3-yl)benzamide]
4 | 1880 | 829 | 96 | Cn1cc(-c2ccc3c(-c4ccc(C#N)cc4)coc3c2)cn1 [Compound 32, 4-(6-(1-methyl-1H-pyrazol-4-yl)benzofuran-3-yl)benzonitrile]
5 | 315 | 15 | 2.6 | CN1CCC(n2cc(-c3ccc4c(-c5cc6c(c(OC(F)F)c5)C(=O)N(CC#N)CC6)coc4c3)cn2)C1 (stereo not drawn) [Compound 56, 2-(8-(difluoromethoxy)-6-(6-(1-(1-methylpyrrolidin-3-yl)-1H-pyrazol-4-yl)benzofuran-3-yl)-1-oxo-3,4-dihydroisoquinolin-2 (1H)-yl) acetonitrile]
6 | > 10000 | > 10000 | 2960 | CN1CC(Oc2cc(-c3coc4cc(OCCN5CCCC5)ccc34)cc(OC(F)F)c2C(=O)NC2CC2)C1 [Compound 106, N-cyclopropyl-2-(difluoromethoxy)-6-((1-methylazetidin-3-yl)oxy)-4-(6-(2-(pyrrolidin-1-yl)ethoxy)benzofuran-3-yl)benzamide]
7 | 1710 | 69 | 33 | O=C1c2c(cc(-c3coc4cc(-c5cnn(C6CCOCC6)c5)ccc34)cc2OC(F)F)CCN1CC(F)(F)F [Compound 41, 8-(difluoromethoxy)-6-(6-(1-(tetrahydro-2H-pyran-4-yl)-1H-pyrazol-4-yl)benzofuran-3-yl)-2-(2,2,2-trifluoroethyl)-3,4-dihydroisoquinolin-1 (2H)-one]
8 | 1220 | 161 | 18 | COc1cc(-c2coc3cc(OCCN4CCCC4)ccc23)cc(OC(F)F)c1C(=O)NC1CCCCC1N (racemic) [Compound 124, N-(2-aminocyclohexyl)-2-(difluoromethoxy)-6-methoxy-4-(6-(2-(pyrrolidin-1-yl)ethoxy)benzofuran-3-yl)benzamide]
9 | > 10000 | 359 | 103 | COc1cc(-c2coc3cc(OCCN4CCCC4)ccc23)cc(OC(F)F)c1C(=O)NC1CCCC1N (racemic) [Compound 130, N-(2-aminocyclopentyl)-2-(difluoromethoxy)-6-methoxy-4-(6-(2-(pyrrolidin-1-yl)ethoxy)benzofuran-3-yl)benzamide]
10 | > 10000 | 387 | 223 | COc1cc(-c2coc3cc(-c4cn(C)nc4Cl)ccc23)cc2c1C(=O)N(CC(F)(F)F)CC2 [Compound 23, 6-(6-(3-chloro-1-methyl-1H-pyrazol-4-yl)benzofuran-3-yl)-8-methoxy-2-(2,2,2-trifluoroethyl)-3,4-dihydroisoquinolin-1 (2H)-one]
11 | 3370 | 80 | 27 | COc1cc(-c2coc3cc(OCCN4CCC[C@H]4C)ccc23)cc(OC(F)F)c1C(=O)N[C@@H]1C[C@@H]1F [Compound 77, 2-(difluoromethoxy)-N-((1R,2S)-2-fluorocyclopropyl)-6-methoxy-4-(6-(2-((R)-2-methylpyrrolidin-1-yl)ethoxy)benzofuran-3-yl)benzamide]
12 | 216 | 42 | 15 | COc1cc(-c2coc3cc(-c4cnn(C)c4)ccc23)cc2c1C(=O)N(CC(F)(F)F)[C@@H](C)C2 [Compound 29A, (S)-8-methoxy-3-methyl-6-(6-(1-methyl-1H-pyrazol-4-yl)benzofuran-3-yl)-2-(2,2,2-trifluoroethyl)-3,4-dihydroisoquinolin-1 (2H)-one]
13 | 317 | 26 | 3.7 | COc1cc(-c2coc3cc(-c4cnn(C5CCN(C)C5)c4)ccc23)cc2c1C(=O)N(CC(F)(F)F)CC2 (stereo not drawn) [Compound 51, 8-methoxy-6-(6-(1-(1-methylpyrrolidin-3-yl)-1H-pyrazol-4-yl)benzofuran-3-yl)-2-(2,2,2-trifluoroethyl)-3,4-dihydroisoquinolin-1 (2H)-one]
14 | 538 | 41 | 33 | COc1cc(-c2coc3cc(-c4cc(C)n[nH]4)ccc23)cc2c1C(=O)N(CC(F)(F)F)CC2 [Example 5, 8-methoxy-6-(6-(3-methyl-1H-pyrazol-5-yl)benzofuran-3-yl)-2-(2,2,2-trifluoroethyl)-3,4-dihydroisoquinolin-1 (2H)-one]
15 | 676 | 57 | 8 | O=C1c2c(cc(-c3coc4cc(-c5cnn(C6CCNCC6)c5)ccc34)cc2OC(F)F)CCN1CC(F)(F)F [Compound 43, 8-(difluoromethoxy)-6-(6-(1-(piperidin-4-yl)-1H-pyrazol-4-yl)benzofuran-3-yl)-2-(2,2,2-trifluoroethyl)-3,4-dihydroisoquinolin-1 (2H)-one]
16 | 3940 | 281 | 140 | COc1cc(-c2coc3cc(-c4cnn(C)c4)ccc23)cc2c1C(=O)N(CC(F)(F)F)CCO2 [Compound 28, 6-methoxy-8-(6-(1-methyl-1H-pyrazol-4-yl)benzofuran-3-yl)-4-(2,2,2-trifluoroethyl)-3,4-dihydrobenzo[f][1,4]oxazepin-5 (2H)-one]
17 | > 10000 | 6310 | 781 | CN(C)CCOc1cc(-c2coc3cc(OCCN4CCCC4)ccc23)cc(OC(F)F)c1C(=O)NC1CC1 [Compound 118, N-cyclopropyl-2-(difluoromethoxy)-6-(2-(dimethylamino)ethoxy)-4-(6-(2-(pyrrolidin-1-yl)ethoxy)benzofuran-3-yl)benzamide]
18 | 236 | 32.8 | 8.1 | COc1cc(-c2coc3cc(OCCCN4CCN(C)CC4)ccc23)cc(OC(F)F)c1C(=O)N[C@@H]1C[C@@H]1F [Compound 85, 2-(difluoromethoxy)-N-((1R,2S)-2-fluorocyclopropyl)-6-methoxy-4-(6-(3-(4-methylpiperazin-1-yl)propoxy)benzofuran-3-yl)benzamide]
19 | 430 | 36.1 | 7.8 | CN1CCC(n2cc(-c3ccc4c(-c5cc6c(c(OC(F)F)c5)C(=O)N(CC(F)(F)F)CC6)coc4c3)cn2)CC1 [Compound 46, 8-(difluoromethoxy)-6-(6-(1-(1-methylpiperidin-4-yl)-1H-pyrazol-4-yl)benzofuran-3-yl)-2-(2,2,2-trifluoroethyl)-3,4-dihydroisoquinolin-1 (2H)-one]
